Reference: ChEMBL document CHEMBL1833895, “Synthesis and biological activity of desmethoxy analogues of coruscanone A” (Bioorg Med Chem Lett, 2011)

Tests used:
Nakaseomyces glabratus [1] = test: Antifungal activity against Candida glabrata 20/I after 24 hrs by microdilution method; assay type: functional
L1210 [2] = test: Cytostatic activity against mouse L1210 cells at 10 umol/L after 72 hrs by XTT assay; assay type: ADME, cell-based; conditions: l1210, 72 h, 10 µM
Trichosporon asahii [3] = test: Antifungal activity against Trichosporon asahii 1188 after 24 hrs by microdilution method; assay type: functional; conditions: Trichosporon asahii, 1188, 24 h
Candida albicans [4] = test: Antifungal activity against Candida albicans ATCC 90028 after 48 hrs by microdilution method; assay type: functional; conditions: ATCC 90028, 48 h
Aspergillus fumigatus [5] = test: Antifungal activity against Aspergillus fumigatus 231 after 24 hrs by microdilution method; assay type: functional, organism-based; conditions: Aspergillus fumigatus, 231, 24 h
Pichia kudriavzevii [6] = test: Antifungal activity against Candida krusei E28 after 24 hrs by microdilution method; assay type: functional; conditions: E28, 24 h
Lichtheimia corymbifera [7] = test: Antifungal activity against Absidia corymbifera 272 after 24 hrs by microdilution method; assay type: functional, organism-based; conditions: Lichtheimia corymbifera, 272, 24 h
[8] = Cytostatic activity against human HeLaS3 cells after 48 hrs by XTT assay; assay type: ADME, cell-based; conditions: HeLa S3, 48 h
Clavispora lusitaniae [9] = test: Antifungal activity against Candida lusitaniae 2446/I after 48 hrs by microdilution method; assay type: functional
Lichtheimia corymbifera [10] = test: Antifungal activity against Absidia corymbifera 272 after 48 hrs by microdilution method; assay type: functional, organism-based; conditions: Lichtheimia corymbifera, 272, 48 h
Candida tropicalis [11] = test: Antifungal activity against Candida tropicalis 156 after 24 hrs by microdilution method; assay type: functional; conditions: Candida tropicalis, 156, 24 h
CCRF-CEM [12] = test: Cytostatic activity against human CCRF-CEM cells at 10 umol/L after 72 hrs by XTT assay; assay type: ADME, cell-based; conditions: 10 µM
[13] = system: Trichophyton mentagrophytes; test: Antifungal activity against Trichophyton mentagrophytes 445 after 72 hrs by microdilution method; assay type: functional, organism-based; conditions: Trichophyton mentagrophytes, 445, 72 h
Candida parapsilosis [14] = test: Antifungal activity against Candida parapsilosis ATCC 22019 after 48 hrs by microdilution method; assay type: functional; conditions: Lodderomyces parapsilosis, ATCC 22019, 48 h
Candida albicans [15] = test: Antifungal activity against Candida albicans ATCC 90028 after 24 hrs by microdilution method; assay type: functional; conditions: ATCC 90028, 24 h
Candida albicans [16] = test: Antifungal activity against Candida albicans ATCC 44859 after 24 hrs by microdilution method; assay type: functional; conditions: ATCC 44859, 24 h
Candida parapsilosis [17] = test: Antifungal activity against Candida parapsilosis ATCC 22019 after 24 hrs by microdilution method; assay type: functional; conditions: Lodderomyces parapsilosis, ATCC 22019, 24 h
HT-29 = test: Cytostatic activity against human HT-29 cells at 10 umol/L after 72 hrs by XTT assay; assay type: ADME, cell-based; conditions: ht-29, 72 h, 10 µM
Pichia kudriavzevii [18] = test: Antifungal activity against Candida krusei ATCC 6258 after 48 hrs by microdilution method; assay type: functional; conditions: ATCC 6258, 48 h
Nakaseomyces glabratus [19] = test: Antifungal activity against Candida glabrata 20/I after 48 hrs by microdilution method; assay type: functional
Clavispora lusitaniae [20] = test: Antifungal activity against Candida lusitaniae 2446/I after 24 hrs by microdilution method; assay type: functional
Candida albicans [21] = test: Antifungal activity against Candida albicans ATCC 44859 after 48 hrs by microdilution method; assay type: functional; conditions: ATCC 44859, 48 h
[22] = Cytostatic activity against human COLO201 cells at 10 umol/L after 72 hrs by XTT assay; assay type: ADME, cell-based; conditions: colo 201, 72 h, 10 µM
Pichia kudriavzevii [23] = test: Antifungal activity against Candida krusei E28 after 48 hrs by microdilution method; assay type: functional; conditions: E28, 48 h
HL-60 [24] = test: Cytostatic activity against human HL60 cells at 10 umol/L after 72 hrs by XTT assay; assay type: ADME, cell-based; conditions: hl-60, 72 h, 10 µM
Pichia kudriavzevii [25] = test: Antifungal activity against Candida krusei ATCC 6258 after 24 hrs by microdilution method; assay type: functional; conditions: ATCC 6258, 24 h
Trichosporon asahii [26] = test: Antifungal activity against Trichosporon asahii 1188 after 48 hrs by microdilution method; assay type: functional; conditions: Trichosporon asahii, 1188, 48 h
Candida tropicalis [27] = test: Antifungal activity against Candida tropicalis 156 after 48 hrs by microdilution method; assay type: functional; conditions: Candida tropicalis, 156, 48 h
Aspergillus fumigatus [28] = test: Antifungal activity against Aspergillus fumigatus 231 after 48 hrs by microdilution method; assay type: functional, organism-based; conditions: Aspergillus fumigatus, 231, 48 h
[29] = system: Trichophyton mentagrophytes; test: Antifungal activity against Trichophyton mentagrophytes 445 after 120 hrs by microdilution method; assay type: functional, organism-based; conditions: Trichophyton mentagrophytes, 445, 120 h
[30] = Cytostatic activity against human HeLaS3 cells at 10 umol/L after 48 hrs by XTT assay; assay type: ADME, cell-based; conditions: hela s3, 48 h, 10 µM
CCRF-CEM [31] = test: Cytostatic activity against human CCRF-CEM cells after 72 hrs by XTT assay; assay type: ADME, cell-based
[32] = Cytostatic activity against human COLO201 cells after 72 hrs by XTT assay; assay type: ADME, cell-based; conditions: COLO 201, 72 h
HL-60 [33] = test: Cytostatic activity against human HL60 cells after 72 hrs by XTT assay; assay type: ADME, cell-based; conditions: HL-60, 72 h
L1210 [34] = test: Cytostatic activity against mouse L1210 cells after 72 hrs by XTT assay; assay type: ADME, cell-based; conditions: L1210, 72 h

| SMILES | IC80 (Nakaseomyces glabratus [1]) [µM] | Activity (L1210 [2]) | IC80 (Trichosporon asahii [3]) [µM] | IC80 (Candida albicans [4]) [µM] | IC80 (Aspergillus fumigatus [5]) [µM] | IC80 (Pichia kudriavzevii [6]) [µM] | IC80 (Lichtheimia corymbifera [7]) [µM] | IC80 (Clavispora lusitaniae [9]) [µM] | IC80 (Lichtheimia corymbifera [10]) [µM] | IC80 (Candida tropicalis [11]) [µM] | IC80 [13] [µM] | IC80 (Candida parapsilosis [14]) [µM] | IC80 (Candida albicans [16]) [µM] | IC80 (Nakaseomyces glabratus [19]) [µM] | IC80 (Candida albicans [21]) [µM] | IC80 (Pichia kudriavzevii [23]) [µM] | IC80 (Trichosporon asahii [26]) [µM] | IC80 (Candida tropicalis [27]) [µM] | IC80 (Aspergillus fumigatus [28]) [µM] | IC50 [29] [µM] | further results |
| --- | --- | --- | --- | --- | --- | --- | --- | --- | --- | --- | --- | --- | --- | --- | --- | --- | --- | --- | --- | --- | --- |
| Cc1ccc(/C=C/C=C2C(=O)C=CC2=O)cc1 | 31.2 | Non-toxic | 31.2 | 7.81 | 62.5 | 7.81 | > 125 | 15.6 | > 125 | 7.81 | 125 | 31.2 | 3.9 | 31.2 | 7.81 | 15.6 | > 125 | 7.81 | > 125 | > 125 | IC50 [8]: 7.3 µM; Activity (CCRF-CEM [12]): Non-toxic; IC80 (Candida albicans [15]): 7.81 µM; IC80 (Candida parapsilosis [17]): 7.81 µM; Activity (HT-29): Non-toxic; IC80 (Pichia kudriavzevii [18]): 15.6 µM; IC80 (Clavispora lusitaniae [20]): 7.81 µM; Activity [22]: Non-toxic; Activity (HL-60 [24]): Non-toxic; IC80 (Pichia kudriavzevii [25]): 7.81 µM |
| O=C1C=CC(=O)C1=C/C=C/c1ccc(Cl)cc1 | 62.5 | Non-toxic | 62.5 | 62.5 | 62.5 | 62.5 | > 250 | 62.5 | > 250 | 62.5 | 62.5 | 62.5 | 62.5 | 62.5 | 62.5 | 62.5 | 125 | 62.5 | 125 | 250 | Activity [30]: Non-toxic; Activity (CCRF-CEM [12]): Non-toxic; IC80 (Candida albicans [15]): 62.5 µM; IC80 (Candida parapsilosis [17]): 62.5 µM; Activity (HT-29): Non-toxic; IC80 (Pichia kudriavzevii [18]): 62.5 µM; IC80 (Clavispora lusitaniae [20]): 62.5 µM; Activity [22]: Non-toxic; Activity (HL-60 [24]): Non-toxic; IC80 (Pichia kudriavzevii [25]): 62.5 µM |
| CN(C)c1ccc(C=C2C(=O)C=CC2=O)cc1 | 62.5 | Non-toxic | 7.81 | 62.5 | 15.6 | 7.81 | > 125 | 31.2 | > 125 | 62.5 | 0.98 | 7.81 | 31.2 | > 125 | 31.2 | 7.81 | 15.6 | > 125 | 31.2 | 0.98 | IC50 (CCRF-CEM [31]): 4.3 µM; Activity [30]: Non-toxic; IC80 (Candida albicans [15]): 31.2 µM; IC80 (Candida parapsilosis [17]): 3.9 µM; Activity (HT-29): Non-toxic; IC80 (Pichia kudriavzevii [18]): 7.81 µM; IC80 (Clavispora lusitaniae [20]): 7.81 µM; Activity (HL-60 [24]): Non-toxic; IC80 (Pichia kudriavzevii [25]): 7.81 µM; IC50 [32]: 1.3 µM |
| O=C1C=CC(=O)C1=Cc1ccc2ccccc2c1 | 31.2 | Non-toxic | 15.6 | 15.6 | 15.6 | 31.2 | 125 | 15.6 | > 125 | 31.2 | 7.81 | 15.6 | 15.6 | 31.2 | 15.6 | 31.2 | 62.5 | 31.2 | 31.2 | 15.6 | IC50 (CCRF-CEM [31]): 3.7 µM; IC50 [8]: 13.5 µM; IC80 (Candida albicans [15]): 15.6 µM; IC80 (Candida parapsilosis [17]): 15.6 µM; Activity (HT-29): Non-toxic; IC80 (Pichia kudriavzevii [18]): 31.2 µM; IC80 (Clavispora lusitaniae [20]): 15.6 µM; Activity (HL-60 [24]): Non-toxic; IC80 (Pichia kudriavzevii [25]): 15.6 µM; IC50 [32]: 2.4 µM |
| COC(/C=C/c1ccccc1)=C1\C(=O)C=C(C)C1=O [CORUSCANONE A] | 125 |  | 0.98 |  | 31.2 | 125 | 31.2 |  | 250 | 3.91 | 3.91 |  | 0.98 | 125 | 3.91 | 250 | 7.81 | 7.1 | 250 | 7.81 | IC50 (CCRF-CEM [31]): 3.6 µM; IC50 (HL-60 [33]): 4.5 µM; IC50 (L1210 [34]): 3.8 µM |
